From publication PMC5218480 (PLoS ONE, 2017)

Test system: MV-4-11 cells
Assay: Gene expression microarray analysis (Affymetrix PrimeView) and GSEA
Assay type: cell-based, human
Parameters: RFU PODN (11730768_x_at) / Fold change /veh PODN (11730768_x_at) / RFU LINC00158 (11744669_a_at) / Fold change /veh LINC00158 (11744669_a_at) / RFU DUSP10 (11751237_a_at) / Fold change /veh DUSP10 (11751237_a_at) / RFU ID3 (11757404_x_at) / Fold change /veh ID3 (11757404_x_at) / RFU PLEKHG5 (11737974_s_at) / Fold change /veh PLEKHG5 (11737974_s_at) / RFU LRRC4B (11730491_at) / Fold change /veh LRRC4B (11730491_at) / RFU GIMAP4 (11747438_a_at) / Fold change /veh GIMAP4 (11747438_a_at) / RFU KRT8 (11758183_x_at) / Fold change /veh KRT8 (11758183_x_at) / RFU CNN1 (11734310_a_at) / Fold change /veh CNN1 (11734310_a_at) / RFU VPS37D (11726825_at) / Fold change /veh VPS37D (11726825_at) / RFU C10orf10 (11716522_x_at) / Fold change /veh C10orf10 (11716522_x_at) / RFU KIR2DL2 /// KIR2DL4 /// KIR2DL5A /// KIR2DL5B /// KIR2DS1 /// KIR2DS2 /// KIR2DS3 /// KIR2DS4 /// KIR3DL3 /// KIR3DL3 /// KIR3DS1 (11738374_at) / Fold change /veh KIR2DL2 /// KIR2DL4 /// KIR2DL5A /// KIR2DL5B /// KIR2DS1 /// KIR2DS2 /// KIR2DS3 /// KIR2DS4 /// KIR3DL3 /// KIR3DL3 /// KIR3DS1 (11738374_at) / RFU C1QL1 (11718748_at) / Fold change /veh C1QL1 (11718748_at) / RFU TMPRSS4 (11747572_a_at) / Fold change /veh TMPRSS4 (11747572_a_at) / RFU HAMP (11756126_x_at) / Fold change /veh HAMP (11756126_x_at) / RFU RNFT2 (11725882_a_at) / Fold change /veh RNFT2 (11725882_a_at) / RFU NR4A2 (11747474_a_at) / Fold change /veh NR4A2 (11747474_a_at) / RFU ABCC12 (11746883_a_at) / Fold change /veh ABCC12 (11746883_a_at) / RFU TMEM136 (11760407_x_at) / Fold change /veh TMEM136 (11760407_x_at) / RFU CLDN22 /// WWC2 (11732394_at) / Fold change /veh CLDN22 /// WWC2 (11732394_at) / RFU HLA-DPB1 (11760878_x_at) / Fold change /veh HLA-DPB1 (11760878_x_at) / RFU SPINT1 (11716480_a_at) / Fold change /veh SPINT1 (11716480_a_at) / RFU GAP43 (11754022_s_at) / Fold change /veh GAP43 (11754022_s_at) / RFU A4GNT (11735810_at) / Fold change /veh A4GNT (11735810_at) / RFU PRB3 (11715151_x_at) / Fold change /veh PRB3 (11715151_x_at) / RFU TUBB4B (11761932_at) / Fold change /veh TUBB4B (11761932_at) / RFU CAPN14 (11732068_a_at) / Fold change /veh CAPN14 (11732068_a_at) / RFU TMCC2 (11721928_a_at) / Fold change /veh TMCC2 (11721928_a_at) / RFU IRGQ (11745062_a_at) / Fold change /veh IRGQ (11745062_a_at) / RFU FAM174B (11720279_a_at) / Fold change /veh FAM174B (11720279_a_at) / RFU TMPRSS4 (11748680_a_at) / Fold change /veh TMPRSS4 (11748680_a_at) / RFU FAM212B (11763350_a_at) / Fold change /veh FAM212B (11763350_a_at) / RFU PLEKHG5 (11743358_a_at) / Fold change /veh PLEKHG5 (11743358_a_at) / RFU ZSCAN30 (11745921_a_at) / Fold change /veh ZSCAN30 (11745921_a_at) / RFU CMKLR1 (11741424_a_at) / Fold change /veh CMKLR1 (11741424_a_at) / RFU LOC101060620 /// MAPK8IP1 (11723275_at) / Fold change /veh LOC101060620 /// MAPK8IP1 (11723275_at) / RFU SPTSSB (11747773_x_at) / Fold change /veh SPTSSB (11747773_x_at) / RFU PRSS12 (11739890_at) / Fold change /veh PRSS12 (11739890_at) / RFU BIN1 (11741810_x_at) / Fold change /veh BIN1 (11741810_x_at) / RFU WNT11 (11732464_a_at) / Fold change /veh WNT11 (11732464_a_at) / RFU C10orf10 (11716521_a_at) / Fold change /veh C10orf10 (11716521_a_at) / RFU C5orf56 (11738089_at) / Fold change /veh C5orf56 (11738089_at) / RFU CYB561 (11721691_x_at) / Fold change /veh CYB561 (11721691_x_at) / RFU ANKRD19P (11752326_a_at) / Fold change /veh ANKRD19P (11752326_a_at) / RFU OR2T12 /// OR2T33 /// OR2T8 (11738714_s_at) / Fold change /veh OR2T12 /// OR2T33 /// OR2T8 (11738714_s_at) / RFU VCAN (11748164_a_at) / Fold change /veh VCAN (11748164_a_at) / RFU JSRP1 (11732532_at) / Fold change /veh JSRP1 (11732532_at) / RFU KRTAP10-11 (11738290_x_at) / Fold change /veh KRTAP10-11 (11738290_x_at) / RFU MYO3A (11730013_a_at) / Fold change /veh MYO3A (11730013_a_at) / RFU EBF3 (11725865_a_at) / Fold change /veh EBF3 (11725865_a_at) / RFU CAMK2N1 (11719241_x_at) / Fold change /veh CAMK2N1 (11719241_x_at) / RFU C5orf56 (11738088_a_at) / Fold change /veh C5orf56 (11738088_a_at) / RFU OLFML3 (11715873_a_at) / Fold change /veh OLFML3 (11715873_a_at) / RFU LOC100653217 /// NTM (11731650_a_at) / Fold change /veh LOC100653217 /// NTM (11731650_a_at) / RFU MAPK11 (11762145_a_at) / Fold change /veh MAPK11 (11762145_a_at) / RFU FIZ1 (11724087_x_at) / Fold change /veh FIZ1 (11724087_x_at) / RFU OASL (11726364_x_at) / Fold change /veh OASL (11726364_x_at) / RFU SOX15 (11748057_x_at) / Fold change /veh SOX15 (11748057_x_at) / RFU CD79A (11719716_a_at) / Fold change /veh CD79A (11719716_a_at) / RFU HIST1H1D (11736915_at) / Fold change /veh HIST1H1D (11736915_at) / RFU CASKIN2 (11723855_a_at) / Fold change /veh CASKIN2 (11723855_a_at) / RFU LOC730098 (11760151_x_at) / Fold change /veh LOC730098 (11760151_x_at) / RFU OR4N2 (11742367_at) / Fold change /veh OR4N2 (11742367_at) / RFU PRRT2 (11749266_a_at) / Fold change /veh PRRT2 (11749266_a_at) / RFU SNX32 (11753110_a_at) / Fold change /veh SNX32 (11753110_a_at) / RFU CDHR5 (11726645_a_at) / Fold change /veh CDHR5 (11726645_a_at) / RFU RCAN1 (11760418_a_at) / Fold change /veh RCAN1 (11760418_a_at) / RFU FAM167A (11723789_a_at) / Fold change /veh FAM167A (11723789_a_at) / RFU FAM26E (11764081_at) / Fold change /veh FAM26E (11764081_at) / RFU ISYNA1 (11749810_s_at) / Fold change /veh ISYNA1 (11749810_s_at) / RFU ACY1 (11761880_at) / Fold change /veh ACY1 (11761880_at) / RFU 11764098_at / Fold change /veh 11764098_at / RFU SAMD14 (11745864_x_at) / Fold change /veh SAMD14 (11745864_x_at) / RFU NPB (11741838_a_at) / Fold change /veh NPB (11741838_a_at) / RFU TMPRSS6 (11731388_a_at) / Fold change /veh TMPRSS6 (11731388_a_at) / RFU KRTAP10-2 (11738614_at) / Fold change /veh KRTAP10-2 (11738614_at) / RFU ARHGAP8 /// PRR5-ARHGAP8 (11727945_x_at) / Fold change /veh ARHGAP8 /// PRR5-ARHGAP8 (11727945_x_at) / RFU KRTAP5-7 /// NADSYN1 (11734609_at) / Fold change /veh KRTAP5-7 /// NADSYN1 (11734609_at) / RFU RASL12 (11751679_a_at) / Fold change /veh RASL12 (11751679_a_at) / RFU CDKN2B (11736163_a_at) / Fold change /veh CDKN2B (11736163_a_at) / RFU PRF1 (11729649_at) / Fold change /veh PRF1 (11729649_at) / RFU, ZNF638 /// ZNF638-IT1 / Fold change vs veh, ZNF638 /// ZNF638-IT1 / RFU, PANK3 / Fold change vs veh, PANK3 / RFU, SH3YL1 / Fold change vs veh, SH3YL1 / RFU, ZEB2 / Fold change vs veh, ZEB2 / RFU, NRIP1 / Fold change vs veh, NRIP1 / RFU, PTTG1IP / Fold change vs veh, PTTG1IP / RFU, CAPN2 / Fold change vs veh, CAPN2 / RFU, MED14 / Fold change vs veh, MED14 / RFU, SNORA58 / Fold change vs veh, SNORA58 / RFU, C1orf63 / Fold change vs veh, C1orf63 / RFU, LRRFIP1 / Fold change vs veh, LRRFIP1 / RFU, NDUFAF7 / Fold change vs veh, NDUFAF7 / RFU, SLC12A2 / Fold change vs veh, SLC12A2 / RFU, IBTK / Fold change vs veh, IBTK / RFU, ESF1 / Fold change vs veh, ESF1 / Fold change vs veh, TMEM50B / RFU, TAOK1 / Fold change vs veh, TAOK1 / RFU, ACBD3 / Fold change vs veh, ACBD3 / RFU, TMA16 / Fold change vs veh, TMA16 / RFU, RWDD3 / Fold change vs veh, RWDD3 / RFU, BCAT1 / Fold change vs veh, BCAT1 / RFU, EDEM3 / Fold change vs veh, EDEM3 / RFU, TMEM33 / Fold change vs veh, TMEM33 / RFU, WDR75 / Fold change vs veh, WDR75 / RFU, AHCTF1 / Fold change vs veh, AHCTF1 / RFU, TFRC / Fold change vs veh, TFRC / RFU, ZDHHC17 / Fold change vs veh, ZDHHC17 / RFU, NOM1 / Fold change vs veh, NOM1 / RFU, ARL8B / Fold change vs veh, ARL8B / RFU, ZBTB11 / Fold change vs veh, ZBTB11 / RFU, TAMM41 / Fold change vs veh, TAMM41 / RFU, KIAA1704 /// LOC100996395 / Fold change vs veh, KIAA1704 /// LOC100996395 / RFU, ING1 / Fold change vs veh, ING1 / RFU, TRMT61B / Fold change vs veh, TRMT61B / RFU, FUBP3 / Fold change vs veh, FUBP3 / RFU, TP53 / Fold change vs veh, TP53 / RFU, TNKS2 / Fold change vs veh, TNKS2 / RFU, ZFP14 / Fold change vs veh, ZFP14 / RFU, ACTR2 / Fold change vs veh, ACTR2 / RFU, PPP3R1 / Fold change vs veh, PPP3R1 / RFU, PIK3R1 / Fold change vs veh, PIK3R1 / RFU, HNRNPA1 / Fold change vs veh, HNRNPA1 / RFU, RNF170 / Fold change vs veh, RNF170 / RFU, ZNF28 / Fold change vs veh, ZNF28 / RFU, RNGTT / Fold change vs veh, RNGTT / RFU, OGT / Fold change vs veh, OGT / RFU, BRD1 / Fold change vs veh, BRD1 / RFU, MARS / Fold change vs veh, MARS / RFU, ZNF655 / Fold change vs veh, ZNF655 / RFU, FAHD1 / Fold change vs veh, FAHD1 / RFU, BDP1 / Fold change vs veh, BDP1 / RFU, LRRCC1 / Fold change vs veh, LRRCC1 / RFU, ARID1A / Fold change vs veh, ARID1A / RFU, ZNF146 / Fold change vs veh, ZNF146 / RFU, ZNF330 / Fold change vs veh, ZNF330 / RFU, GPN3 / Fold change vs veh, GPN3 / RFU, C9orf123 / Fold change vs veh, C9orf123 / RFU, N4BP2L2 / Fold change vs veh, N4BP2L2 / RFU, ARFIP1 / Fold change vs veh, ARFIP1 / RFU, FAM179B / Fold change vs veh, FAM179B / RFU, BCL10 / Fold change vs veh, BCL10 / RFU, UHRF1BP1L / Fold change vs veh, UHRF1BP1L / RFU, BET1 / Fold change vs veh, BET1 / RFU, CNOT2 / Fold change vs veh, CNOT2 / RFU, ZNF268 / Fold change vs veh, ZNF268 / Fold change vs veh, ZNF507 / RFU, DGCR2 / Fold change vs veh, DGCR2 / RFU, WDSUB1 / Fold change vs veh, WDSUB1 / Fold change vs veh, HSP90B1 /// MIR3652 / RFU, ADSS / Fold change vs veh, ADSS / RFU, GK / Fold change vs veh, GK / RFU, ZNF148 / Fold change vs veh, ZNF148 / RFU, TAF9 / Fold change vs veh, TAF9 / RFU, SLC1A5 / Fold change vs veh, SLC1A5 / RFU, SLMO2 / Fold change vs veh, SLMO2 / RFU, ABCC4 / Fold change vs veh, ABCC4 / RFU, LOC101060439 /// RAP1B / Fold change vs veh, LOC101060439 /// RAP1B / RFU, RFX7 / Fold change vs veh, RFX7 / RFU, GTPBP10 / Fold change vs veh, GTPBP10 / RFU, CNEP1R1 / Fold change vs veh, CNEP1R1 / RFU, BIVM-ERCC5 /// ERCC5 / Fold change vs veh, BIVM-ERCC5 /// ERCC5 / RFU, ILF3 / Fold change vs veh, ILF3 / RFU 11762660_at / Fold change /veh 11762660_at / RFU VCAN (11757783_s_at) / Fold change /veh VCAN (11757783_s_at) / RFU DDX43 (11728927_at) / Fold change /veh DDX43 (11728927_at) / RFU KRT8 (11758188_x_at) / Fold change /veh KRT8 (11758188_x_at) / RFU NKD1 (11759106_at) / Fold change /veh NKD1 (11759106_at) / RFU SRD5A1 (11742802_a_at) / Fold change /veh SRD5A1 (11742802_a_at) / RFU TPSAB1 /// TPSB2 (11721975_s_at) / Fold change /veh TPSAB1 /// TPSB2 (11721975_s_at) / RFU GSTM3 (11746129_a_at) / Fold change /veh GSTM3 (11746129_a_at) / RFU IL23R (11737362_x_at) / Fold change /veh IL23R (11737362_x_at) / RFU TMEM51 (11727254_a_at) / Fold change /veh TMEM51 (11727254_a_at) / RFU PIWIL2 (11732686_x_at) / Fold change /veh PIWIL2 (11732686_x_at) / RFU ORM1 (11744905_x_at) / Fold change /veh ORM1 (11744905_x_at) / RFU CCDC152 (11743942_at) / Fold change /veh CCDC152 (11743942_at) / RFU ECM1 (11717891_a_at) / Fold change /veh ECM1 (11717891_a_at) / RFU IL23R (11748794_a_at) / Fold change /veh IL23R (11748794_a_at) / RFU TNFAIP8L3 (11732012_x_at) / Fold change /veh TNFAIP8L3 (11732012_x_at) / RFU MBOAT4 (11741988_at) / Fold change /veh MBOAT4 (11741988_at) / RFU 11764193_at / Fold change /veh 11764193_at / RFU TMEM53 (11763286_at) / Fold change /veh TMEM53 (11763286_at) / RFU MAGEB2 (11727129_at) / Fold change /veh MAGEB2 (11727129_at) / RFU TMEM200A (11744735_a_at) / Fold change /veh TMEM200A (11744735_a_at) / RFU CCDC152 (11751479_a_at) / Fold change /veh CCDC152 (11751479_a_at) / RFU FAM211A (11726209_a_at) / Fold change /veh FAM211A (11726209_a_at) / RFU RGS16 (11746705_a_at) / Fold change /veh RGS16 (11746705_a_at) / RFU VCAN (11755009_s_at) / Fold change /veh VCAN (11755009_s_at) / RFU RHOB (11743442_s_at) / Fold change /veh RHOB (11743442_s_at) / RFU RGS16 (11720943_a_at) / Fold change /veh RGS16 (11720943_a_at) / RFU RGS16 (11720944_at) / Fold change /veh RGS16 (11720944_at) / RFU, VPS4B / Fold change vs veh, VPS4B / RFU, CREB1 / Fold change vs veh, CREB1 / RFU, DNAJC13 / Fold change vs veh, DNAJC13 / RFU, GNAQ / Fold change vs veh, GNAQ / RFU, CDK5R1 / Fold change vs veh, CDK5R1 / RFU, ZRANB3 / Fold change vs veh, ZRANB3 / RFU, CUL4A / Fold change vs veh, CUL4A / RFU, CCNY / Fold change vs veh, CCNY / RFU, UFL1 / Fold change vs veh, UFL1 / RFU, COG3 / Fold change vs veh, COG3 / RFU, DIAPH2 / Fold change vs veh, DIAPH2 / RFU, SKA2 / Fold change vs veh, SKA2 / RFU, AFF3 / Fold change vs veh, AFF3 / RFU, LMF1 / Fold change vs veh, LMF1 / RFU, IPO11 / Fold change vs veh, IPO11 / RFU, DFFB / Fold change vs veh, DFFB / RFU, FOXP1 / Fold change vs veh, FOXP1 / RFU, CARD8 / Fold change vs veh, CARD8 / RFU, STRN3 / Fold change vs veh, STRN3 / RFU, ADK / Fold change vs veh, ADK / RFU, RASSF2 / Fold change vs veh, RASSF2 / RFU, WIPF1 / Fold change vs veh, WIPF1 / RFU, LARP1B / Fold change vs veh, LARP1B / RFU, RASA1 / Fold change vs veh, RASA1 / RFU, RB1 / Fold change vs veh, RB1 / RFU, PPFIA1 / Fold change vs veh, PPFIA1 / RFU, MAT2A / Fold change vs veh, MAT2A / RFU, CCT5 / Fold change vs veh, CCT5 / RFU, WDR92 / Fold change vs veh, WDR92 / RFU, CUX1 / Fold change vs veh, CUX1 / RFU, TTC7A / Fold change vs veh, TTC7A / RFU, TMEM135 / Fold change vs veh, TMEM135 / RFU, DEPTOR / Fold change vs veh, DEPTOR / RFU, CPM / Fold change vs veh, CPM / RFU, DNAJB6 / Fold change vs veh, DNAJB6 / RFU, CACNA2D3 / Fold change vs veh, CACNA2D3 / RFU, DTX4 / Fold change vs veh, DTX4 / RFU, TFCP2 / Fold change vs veh, TFCP2 / RFU, GMCL1 /// GMCL1P1 / Fold change vs veh, GMCL1 /// GMCL1P1 / RFU, AEBP2 / Fold change vs veh, AEBP2 / RFU, SNHG1 /// SNORD22 /// SNORD25 /// SNORD26 /// SNORD27 /// SNORD28 /// SNORD29 /// SNORD31 / Fold change vs veh, SNHG1 /// SNORD22 /// SNORD25 /// SNORD26 /// SNORD27 /// SNORD28 /// SNORD29 /// SNORD31 / Fold change (Aza/veh), C12orf56 (ProbeSet 11735607_a_at) / Fold change (ACY-1035/veh), C12orf56 (ProbeSet 11735607_a_at) / Fold change (Aza/veh), FGFR1OP (ProbeSet 11751329_s_at) / Fold change (ACY-1035/veh), FGFR1OP (ProbeSet 11751329_s_at) / Fold change (Aza/veh), VPS36 (ProbeSet 11739960_a_at) / Fold change (ACY-1035/veh), VPS36 (ProbeSet 11739960_a_at) / RFU SYPL1 (11715823_x_at) / Fold change /veh SYPL1 (11715823_x_at) / RFU IGFBP7 (11715501_s_at) / Fold change /veh IGFBP7 (11715501_s_at) / RFU REEP3 (11722064_at) / Fold change /veh REEP3 (11722064_at) / RFU IGLL1 (11728026_x_at) / Fold change /veh IGLL1 (11728026_x_at): dose or concentration left out as unconfirmed
Settings: MV-4-11 cells, 48 hours

Nc1ncn([C@@H]2O[C@H](CO)[C@@H](O)[C@H]2O)c(=O)n1 [azacitidine]
Fold change /veh ID3 (11757404_x_at): 1.09
